These results are taken from patent publication US9198913B2, “Nitroimidazooxazines and their uses in anti-tubercular therapy” (priority 2009, dated 2015).

≈ marks a conversion by molar mass, not a printed value.

A short description of data set [1]: Stability to mouse liver microsomes.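 Note: analyte quantified by LC-MS/MS as ratio to internal standard peak area, mean of duplicates, 60 min value expressed relative to the 0 min level (100%).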 The class given is in vitro ADME. The conditions noted are these: 1 μM, 37° C., 60 min, CD-1 mouse liver microsomes. A general note: Liver microsomes are a subcellular fraction often used to study metabolism.
Data set [2] in a line: Water solubility (sonicated suspension, HPLC).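 For all read-outs here: concentration in the clear supernatant quantified by HPLC peak area against a DMSO standard solution of the same compound, corrected for dilution and injection volume.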 It counts as physicochemical. The conditions noted are these: in water; for solubility at 15 min: thermodynamic from solid.
Data set [3] is described as follows: In vivo pharmacokinetics in mice.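 For all read-outs here: plasma and lung samples quantified by LC-MS/MS, dosing as a suspension in aqueous carboxymethylcellulose with Tween 80.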 The note with it: CD-1 mice, oral, 40 mg/kg; for Cmax / half-life / Kp: mouse; for Cmax / half-life: in vivo, plasma; for half-life: read-out: t½ (h) plasma (converted); for Kp: lung/plasma, read-out: AUC ratio (lung/plasma).
A short description of data set [4]: Stability to human liver microsomes.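 Note: parent compound quantified by LC-MS/MS against an internal standard, duplicates averaged, expressed relative to the 0 min sample taken as 100%.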 The class given is in vitro ADME. The conditions noted are these: 1 μM, 37° C., 60 min, pooled human liver microsomes.
Data set [5] concerns M. tuberculosis Erdman. In words: In vivo mouse chronic TB infection assay. Set-up: species or system Mycobacterium tuberculosis. The note with it: mice, oral 100 mg/kg, treatment beginning ~70 days after infection.
Data set [6] relates to M. tuberculosis Erdman. In words: In vivo mouse acute TB infection assay. Also on record: species or system Mycobacterium tuberculosis. The conditions noted are these: BALB/c mice; for In vivo efficacy vs PA-824, Acute: oral 100 mg/kg daily 5 days a week for 3 weeks from day 11 post-infection, ratio of average lung CFU reduction to that with PA-824.

In the case of `O=[N+]([O-])c1cn2c(n1)OC[C@@H](OCc1ccc(-c3ccc(C(F)(F)F)nc3)cc1F)C2` [Compound 23, (6S)-6-({2-Fluoro-4-[6-(trifluoromethyl)-3-pyridinyl]benzyl}oxy)-2-nitro-6,7-dihydro-5H-imidazo[2,1-b][1,3]oxazine], the melting point lay in the range of 195 to 198 °C. The “Microsomes (% remaining, 1 h) Mouse” value in data set [1] was 78%. Also, the solubility at 15 min in data set [2] was determined as 5.7 µg/mL (≈ 13 µM). In data set [3], the AUC lung came to 55.4 µg·h/mL, the Cmax is 1560 ng/mL, the half-life was 4.9 h and the Kp was determined as 2.5. Further, the “Microsomes (% remaining, 1 h) Human” value in data set [4] worked out at 96%.
In turn, `O=[N+]([O-])c1cn2c(n1)OC[C@@H](OCc1cnc(-c3ccc(OC(F)(F)F)cc3)nc1)C2` [Compound 16, (6S)-2-Nitro-6-({2-[4-(trifluoromethoxy)phenyl]-5-pyrimidinyl}methoxy)-6,7-dihydro-5H-imidazo[2,1-b][1,3]oxazine] yielded a melting point of 227 to 230 °C. The “Microsomes (% remaining, 1 h) Mouse” value in data set [1] is 87%. Further, the Solubility in data set [2] is 2.1 µg/mL (≈ 4.8 µM). In addition, in data set [3], the AUC lung was 131 µg·h/mL, the concentration peaked (Cmax) at 1160 ng/mL and the half-life was 23.1 h. Further, in data set [4], the “Microsomes (% remaining, 1 h) Human” value was 96%.
Take `O=[N+]([O-])c1cn2c(n1)OC[C@@H](OCc1ccc(-c3ccc(C(F)(F)F)cn3)cc1)C2` [Compound 8, (6S)-2-Nitro-6-({4-[5-(trifluoromethyl)-2-pyridinyl]benzyl}oxy)-6,7-dihydro-5H-imidazo[2,1-b][1,3]oxazine]: the melting point lay within 252 to 254 °C. The “Microsomes (% remaining, 1 h) Mouse” value in data set [1] was found to be 90%. Further, in data set [2], the Solubility was found to be 0.20 µg/mL (≈ 0.476 µM). Moreover, in data set [3], the AUC lung was found to be 67.3 µg·h/mL and the Kp turned out to be 3.3. In data set [4], the “Microsomes (% remaining, 1 h) Human” value turned out to be 93%.
On to `Cn1nc(-c2ccc(OC(F)(F)F)cc2)cc1CO[C@@H]1COc2nc([N+](=O)[O-])cn2C1` [Compound 11, (6S)-6-({1-Methyl-3-[4-(trifluoromethoxy)phenyl]-1H-pyrazol-5-yl}methoxy)-2-nitro-6,7-dihydro-5H-imidazo[2,1-b][1,3]oxazine], for which, in data set [5] (ratio of average lung CFU reduction to that with PA-824), the “In vivo efficacy vs PA-824, Chronic” value was 0.9. Besides, the “Microsomes (% remaining, 1 h) Mouse” value in data set [1] amounted to 81%. This compound also showed a solubility at 15 min in data set [2] of 5.3 µg/mL (≈ 12.1 µM). Besides, in data set [3], the AUC lung is 92.4 µg·h/mL, the peak level (Cmax) was 1660 ng/mL, the half-life is 6.6 h and the Kp was determined as 4.7. In data set [4], the “Microsomes (% remaining, 1 h) Human” value was found to be 86%.
For `O=[N+]([O-])c1cn2c(n1)OC[C@@H](OCc1ccc(-c3ccc(OC(F)(F)F)cc3)cc1F)C2` [Compound 12, (6S)-6-{[3-Fluoro-4′-(trifluoromethoxy)[1,1′-biphenyl]-4-yl]methoxy}-2-nitro-6,7-dihydro-5H-imidazo[2,1-b][1,3]oxazine], the melting point fell in the range of 160 to 162 °C. The “Microsomes (% remaining, 1 h) Mouse” value in data set [1] was 85%. Also, the concentration in solution in data set [2] (solubility at 15 min) was 1.4 µg/mL (≈ 3.09 µM). Also, in data set [3], the AUC lung is 549 µg·h/mL, the half-life is 22 h and the Kp amounted to 2.7. The “In vivo efficacy vs PA-824, Acute” value in data set [6] came to 33. Also, in data set [4], the “Microsomes (% remaining, 1 h) Human” value is 93%.
With `O=[N+]([O-])c1cn2c(n1)OC[C@@H](OCc1ccc(-c3ccc(C(F)(F)F)cn3)cc1F)C2` [Compound 14, (6S)-6-({2-Fluoro-4-[5-(trifluoromethyl)-2-pyridinyl]benzyl}oxy)-2-nitro-6,7-dihydro-5H-imidazo[2,1-b][1,3]oxazine], the melting point was 233 to 235 °C. For the same compound, the “Microsomes (% remaining, 1 h) Mouse” value in data set [1] came out at 77%. Besides, the concentration in solution in data set [2] (solubility at 15 min) came to 1.2 µg/mL (≈ 2.74 µM). In data set [3], the AUC lung stood at 148 µg·h/mL, the highest level (Cmax) was 440 ng/mL, the half-life was 13.9 h and the Kp is 16. Moreover, the “Microsomes (% remaining, 1 h) Human” value in data set [4] was found to be 90%.
Turning to `O=[N+]([O-])c1cn2c(n1)OC[C@@H](OCc1ccc(-c3ccc(OC(F)(F)F)c(F)c3)cc1)C2` [Compound 2, (6S)-6-{[3′-Fluoro-4′-(trifluoromethoxy)[1,1′-biphenyl]-4-yl]methoxy}-2-nitro-6,7-dihydro-5H-imidazo[2,1-b][1,3]oxazine], the melting point was 169 to 171 °C. Moreover, in data set [1], the “Microsomes (% remaining, 1 h) Mouse” value was found to be 86%. The amount in solution in data set [2] (solubility at 15 min) came to 0.1 µg/mL (≈ 0.221 µM). For the same compound, in data set [3], the AUC lung is >513 µg·h/mL, the Cmax is 17100 ng/mL and the half-life is 20.5 h. For the same compound, in data set [4], the “Microsomes (% remaining, 1 h) Human” value worked out at 93%.
Take `O=[N+]([O-])c1cn2c(n1)OC[C@@H](OCc1ccc(OC(F)(F)F)cc1)C2` [PA-824, reference compound]: the “log reduction in CFU (chronic assay)” value in data set [5] is ~2 log. Besides, in data set [3], the AUC lung was 296 µg·h/mL, the concentration peaked (Cmax) at 5500 ng/mL, the half-life was 4.2 h and the Kp is 3.8. Also, the “log reductions in CFU (acute assay)” value in data set [6] (oral 100 mg/kg, lungs, vs vehicle, 'up to') is on record as 2.5-3 log. Besides, the “Microsomes (% remaining, 1 h) Human” value in data set [4] is 82%.
`O=[N+]([O-])c1cn2c(n1)OC[C@@H](OCc1ccc(-c3ccc(OC(F)(F)F)c(Cl)c3)nc1)C2` [Compound 28, (6S)-6-({6-[3-Chloro-4-(trifluoromethoxy)phenyl]-3-pyridinyl}methoxy)-2-nitro-6,7-dihydro-5H-imidazo[2,1-b][1,3]oxazine] gave a melting point of 169 to 171 °C. Moreover, the “Microsomes (% remaining, 1 h) Mouse” value in data set [1] is 77%. Besides, the Solubility in data set [2] was found to be 0.18 µg/mL (≈ 0.382 µM). For the same compound, in data set [3], the AUC lung stood at 284 µg·h/mL, the Cmax was determined as 2890 ng/mL and the half-life was 21.7 h. Besides, the “Microsomes (% remaining, 1 h) Human” value in data set [4] turned out to be 87%.
In turn, `O=[N+]([O-])c1cn2c(n1)OC[C@@H](OCc1ccc(-c3ccc(OC(F)(F)F)cc3Cl)cc1)C2` [Compound 1, (6S)-6-{[2′-Chloro-4′-(trifluoromethoxy)[1,1′-biphenyl]-4-yl]methoxy}-2-nitro-6,7-dihydro-5H-imidazo[2,1-b][1,3]oxazine] registered a melting point of 80 to 82 °C. Besides, in data set [1], the “Microsomes (% remaining, 1 h) Mouse” value is 86%. Also, the solubility at 15 min in data set [2] stood at 0.66 µg/mL (≈ 1.4 µM). Besides, in data set [3], the AUC lung came out at 3363 µg·h/mL, the highest concentration (Cmax) stood at 6800 ng/mL, the half-life was 19.9 h and the Kp worked out at 17. In data set [4], the “Microsomes (% remaining, 1 h) Human” value is 91%.
In turn, `O=[N+]([O-])c1cn2c(n1)OC[C@@H](OCc1ccc(-c3ccc(OC(F)(F)F)c(F)c3)cn1)C2` [Compound 22, (6S)-6-({5-[3-Fluoro-4-(trifluoromethoxy)phenyl]-2-pyridinyl}methoxy)-2-nitro-6,7-dihydro-5H-imidazo[2,1-b][1,3]oxazine] yielded a melting point of 182 to 184 °C. In addition, the “Microsomes (% remaining, 1 h) Mouse” value in data set [1] was found to be 86%. The compound also displayed a Solubility in data set [2] of 30 µg/mL (≈ 66 µM). In data set [3], the AUC lung came to 155 µg·h/mL and the Kp turned out to be 1.1. Moreover, the “Microsomes (% remaining, 1 h) Human” value in data set [4] was determined as 97%.
Regarding `O=[N+]([O-])c1cn2c(n1)OC[C@@H](OCC#Cc1ccc(-c3ccc(OC(F)(F)F)cc3)cc1)C2` [Compound 30, (6S)-2-Nitro-6-({3-[4′-(trifluoromethoxy)[1,1′-biphenyl]-4-yl]-2-propynyl}oxy)-6,7-dihydro-5H-imidazo[2,1-b][1,3]oxazine], the melting point lay within 192 to 194 °C. The “Microsomes (% remaining, 1 h) Mouse” value in data set [1] was 85%. Moreover, the Solubility in data set [2] is 0.07 µg/mL (≈ 0.152 µM). Further, in data set [3], the AUC lung came out at 13.6 µg·h/mL and the Kp worked out at 1.4. In data set [6], the “In vivo efficacy vs PA-824, Acute” value worked out at 89. The “Microsomes (% remaining, 1 h) Human” value in data set [4] is reported as 93%.

Usually solubility stands for the concentration that dissolves in the medium under given conditions. Read a high solubility as a readily soluble substance. For orientation: Cmax means the highest concentration seen after dosing. The term melting point denotes the temperature of the solid-liquid transition. As a reminder, the Solubility is the concentration that dissolves in the medium under given conditions.
